Measured values from ChEMBL document CHEMBL1649532, “Trypanocidal activity of 8-methyl-5'-{[(Z)-4-aminobut-2-enyl]-(methylamino)}adenosine (Genz-644131), an adenosylmethionine decarboxylase inhibitor” (Antimicrob Agents Chemother, 2009).
In brackets after ≈: the same amount, converted by molar mass. Activity calls are given as the source filed them. The calls are words filed in the database; no cut-off is given here.

Experiments:
[1] = tested on: Trypanosoma brucei brucei; assay: Trypanocidal activity against Trypanosoma brucei brucei EATRO after 48 hrs; assay type: functional, organism-based
[2] = tested on: Trypanosoma brucei rhodesiense; assay: Trypanocidal activity against Trypanosoma brucei rhodesiense KETRI2538 after 48 hrs; assay type: functional, organism-based; conditions: KETRI2538, 48 h
[3] = tested on: Trypanosoma brucei rhodesiense; assay: Ratio of Kinact to Kiapp for Trypanosoma brucei rhodesiense AdoMetDC
[4] = tested on: Trypanosoma brucei rhodesiense; assay: Trypanocidal activity against Trypanosoma brucei rhodesiense KETRI243 after 48 hrs; assay type: functional, organism-based; conditions: KETRI243, 48 h
[5] = tested on: Trypanosoma brucei rhodesiense; assay: Trypanocidal activity against Trypanosoma brucei rhodesiense KETRI2002 infected in mouse assessed as protection against trypanosomal infection at 2 mg/kg, ip QD administered 24 hrs postinfection; assay type: functional, organism-based; parameters: dose 2 mg/kg
[6] = tested on: Trypanosoma brucei rhodesiense; assay: Trypanocidal activity against Trypanosoma brucei rhodesiense KETRI1992 infected in mouse assessed as average survival time at 2 mg/kg, ip QD administered 24 hrs postinfection; assay type: functional; conditions: route intraperitoneal
[7] = tested on: Trypanosoma brucei rhodesiense; assay: Trypanocidal activity against Trypanosoma brucei rhodesiense KETRI1992 infected in mouse assessed as protection against trypanosomal infection at 2 mg/kg, ip QD administered 24 hrs postinfection; assay type: functional, organism-based; parameters: dose 2 mg/kg
[8] = tested on: Trypanosoma brucei rhodesiense; assay: Trypanocidal activity against Trypanosoma brucei rhodesiense KETRI243 infected in mouse assessed as average survival time at 2 mg/kg, ip QD administered 24 hrs postinfection; assay type: functional; conditions: route intraperitoneal
[9] = tested on: Trypanosoma brucei brucei; assay: Trypanocidal activity against Trypanosoma brucei brucei EATRO infected in mouse assessed as mean survival time at 2 mg/kg, ip QD for 4 days; assay type: functional; conditions: route intraperitoneal
[10] = tested on: Trypanosoma brucei rhodesiense; assay: Trypanocidal activity against Trypanosoma brucei rhodesiense KETRI243 infected in mouse assessed as protection against trypanosomal infection at 2 mg/kg, ip QD administered 24 hrs postinfection; assay type: functional, organism-based; parameters: dose 2 mg/kg

SMILES | IC50 [1] [µg/mL] | IC50 [2] [µg/mL] | Activity [3] [min⁻¹ M⁻¹] | IC50 [4] [µg/mL] | Activity [5] | MST [6] [days] | Activity [7] | MST [8] [days] | MST [9] [days] | Activity [10]
CN(C/C=C\CN)C[C@H]1O[C@@H](n2cnc3c(N)ncnc32)[C@H](O)[C@@H]1O | 0.05 (≈ 0.143 µM) | 0.021 (≈ 0.0601 µM) | 1.5 | 0.02 (≈ 0.0572 µM) |  |  |  |  |  | 
N=C(N)c1ccc(OCCCCCOc2ccc(C(=N)N)cc2)cc1 [PENTAMIDINE] |  |  |  |  | Active | 18 | inactive | 11.6 | >35 | inactive
